# Reference: patent publication US10344019B2 (priority 2010, dated 2019)
# Like-named read-outs stand apart in the source and are kept apart here.
# How the values were obtained:
# Assay type in all cases: cell-based
# [1] = tested on: HCV 2a Rluc cells (NS5A chimeric genotype 2a JFH-1 replicon with genotype 2a J6 strain NS5A gene, M31 present); experiment: HCV replicon reporter assay, genotype 2a J6 (M31 present); settings: Hepatitis C virus, read-out: 2a J6
# Description: Evaluation of cell-based anti-HCV activity: Antiviral potency (EC50) was determined using a Renilla luciferase (RLuc)-based HCV replicon reporter assay. To perform the assay for genotype 1 and 2a JFH-1, HCV 1b RLuc cells (harboring a dicistronic genotype 1b Con1 replicon that encodes a RLuc reporter), or HCV 1a RLuc cells (harboring a dicistronic genotype 1a H77 replicon that encodes a RLuc reporter), or HCV 2a JFH-1 Rluc cells (harboring a dicistronic genotype 2a JFH-1 replicon that encodes a RLuc reporter) were dispensed into 384-well plates. To perform the assay for genotype 2a (with M31 present) or 2b, HCV 2a Rluc or 2b Rluc cells (both with M31 present) harboring a dicistronic NS5A chimeric genotype 2a JFH-1 replicon that encodes a RLuc reporter and either genotype 2a J6 strain NS5A gene or genotype 2b MD2b-1 NS5A gene (based on Los Alamos HCV database isolates, both with M31 present) respectively, were dispensed into 384-well plates. To perform the assay for genotype 3 and 4, HCV 3a RLuc or 4a Rluc cells harboring a dicistronic NS5A chimeric genotype 1b Con1 replicon that encodes a RLuc reporter and either a consensus genotype 3a NS5A gene or genotype 4a NS5A gene (based on Los Alamos HCV database isolates) respectively, were dispensed into 384-well plates. Compounds were re-suspended in DMSO at a concentration of 10 mM and serially diluted in DMSO either manually or using an automated pipeting instrument. Serially diluted compounds were mixed with cell culture media and added to the seeded cells. […] 72 hours later, cells were lysed and Renilla luciferase activity quantified as recommended by the manufacturer (Promega-Madison, Wis.). Non-linear regression was performed to calculate EC50 values.
# [2] = tested on: HCV 4a Rluc cells (NS5A chimeric genotype 1b Con1 replicon with genotype 4a NS5A gene); experiment: microbe, parasite or virus in culture; settings: Hepatitis C virus, read-out: 4a
# Summary of the method: (§1)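 Replicon cells stably carrying the listed RLuc-encoding dicistronic replicons were seeded and treated with DMSO serial dilutions of compound (10 mM stocks) diluted into culture medium. After 72 h, cells were lysed and Renilla luciferase activity measured. EC50 was derived by non-linear regression.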
# [3] = tested on: HCV 2a JFH-1 Rluc cells (dicistronic genotype 2a JFH-1 replicon, RLuc reporter); experiment: microbe, parasite or virus in culture; settings: Hepatitis C virus, genotype 2a JFH-1 replicon, read-out: 2a JFH
# Summary of the method: (§2)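 Renilla luciferase HCV replicon cells: dicistronic 1b Con1, 1a H77 or 2a JFH-1 replicons, or a JFH-1 chimera carrying J6 NS5A (M31 present). Compound in DMSO serial dilutions, 72 h incubation, then lysis and luciferase read. EC50 by non-linear regression.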
# [4] = tested on: HCV 3a RLuc cells (NS5A chimeric genotype 1b Con1 replicon with consensus genotype 3a NS5A gene); experiment: microbe, parasite or virus in culture; settings: Hepatitis C virus
# Summary of the method: as §1
# [5] = tested on: HCV 1a RLuc cells (dicistronic genotype 1a H77 replicon, RLuc reporter); experiment: microbe, parasite or virus in culture; settings: Hepatitis C virus, read-out: 1a
# Summary of the method: as §2
# [6] = tested on: HCV 1b RLuc cells (dicistronic genotype 1b Con1 replicon, RLuc reporter); experiment: microbe, parasite or virus in culture; settings: Hepatitis C virus, read-out: 1b (nM)
# Summary of the method: as §2
# [7] = read-out: 3a, genotype 3a replicon
# [8] = read-out: 3a, Table 2, genotype 3a NS5A chimeric replicon
# [9] = 72 h, Table 2, genotype 1a H77 replicon, 72 hours
Structure (SMILES),EC50 [1] [nM],EC50 [2] [nM],EC50 [3] [nM],"EC50 [4, 7] [nM]",EC50 ([5]; genotype 1a replicon) [nM],EC50 [6] [nM],"EC50 ([3]; 72 h, Table 2, 72 hours) [nM]","EC50 [4, 8] [nM]","EC50 [5, 9] [nM]",EC50 ([6]; 72 h) [nM]
COC(=O)N[C@H](C(=O)N1CCC[C@H]1c1nnc(-c2ccc(-c3ccc4c(ccc5nc([C@@H]6CCCN6C(=O)[C@@H](NC(=O)OC)C(C)C)[nH]c54)c3)cc2)[nH]1)C(C)C [Example 407],> 44,0.001 to 0.99,0.001 to 0.999,1 to 4.99,0.001 to 0.999,0.048,–,–,–,–
COC(=O)N[C@H](C(=O)N1CCC[C@H]1c1nc2ccc3cc(-c4ccc5c(c4)CCc4nc([C@@H]6CC7(CN6C(=O)[C@@H](NC(=O)OC)[C@@H](C)OC)OCCO7)[nH]c4-5)ccc3c2[nH]1)C(C)C [Example 83],> 44,0.001 to 0.99,–,–,–,–,0.001 to 0.999,1 to 4.99,0.001 to 0.999,0.094
COC(=O)N[C@@H](C(=O)N1[C@@H]2CC[C@@H](C2)[C@H]1c1nc2ccc3cc(-c4ccc5c(ccc6nc([C@@H]7C[C@H]8C[C@H]8N7C(=O)[C@H](NC(=O)OC)c7ccccc7)[nH]c65)c4)ccc3c2[nH]1)c1ccccc1 [Example 406],0.001 to 0.999,0.001 to 0.99,0.001 to 0.999,0.001 to 0.99,0.001 to 0.999,0.017,–,–,–,–
COC(=O)N[C@H](C(=O)N1[C@@H]2CC[C@@H](C2)[C@H]1c1ncc(-c2ccc(-c3ccc4c(ccc5nc([C@@H]6CCCN6C(=O)[C@H](NC(=O)OC)c6ccccc6)[nH]c54)c3)cc2)[nH]1)C(C)C [Example 315],1 to 44,0.001 to 0.99,0.001 to 0.999,0.001 to 0.99,0.001 to 0.999,0.023,–,–,–,–
COC(=O)N[C@H](C(=O)N1CCC[C@H]1c1ncc(-c2cc3c4c(c2)COc2cc(-c5cnc([C@@H]6CCCN6C(=O)[C@@H](NC(=O)OC)C(C)C)[nH]5)cc(c2-4)OC3)[nH]1)C(C)C [Example 319],0.001 to 0.999,0.001 to 0.99,0.001 to 0.999,0.001 to 0.99,0.001 to 0.999,0.021,–,–,–,–
COC(=O)N[C@H](C(=O)N1[C@@H]2CC[C@@H](C2)[C@H]1c1nc2ccc3cc(-c4ccc5c(ccc6nc([C@@H]7CCCN7C(=O)[C@H](NC(=O)OC)c7ccccc7)[nH]c65)c4)ccc3c2[nH]1)C1CCOCC1 [Example 345],0.001 to 0.999,0.001 to 0.99,0.001 to 0.999,0.001 to 0.99,0.001 to 0.999,0.066,–,–,–,–
COC(=O)N[C@H](C(=O)N1[C@@H]2CC[C@@H](C2)[C@H]1c1nc2ccc3cc(-c4ccc5c(ccc6nc([C@@H]7C[C@H]8C[C@H]8N7C(=O)[C@@H](NC(=O)OC)C(C)C)[nH]c65)c4)ccc3c2[nH]1)C(C)C [Example 405],1 to 44,0.001 to 0.99,0.001 to 0.999,0.001 to 0.99,0.001 to 0.999,0.009,–,–,–,–
COC(=O)N[C@H](C(=O)N1[C@@H]2CC[C@@H](C2)[C@H]1c1nc(Cl)c(-c2ccc(-c3ccc4c(ccc5nc([C@@H]6C[C@H]7C[C@H]7N6C(=O)[C@@H](NC(=O)OC)C(C)C)[nH]c54)c3)cc2)[nH]1)C(C)C [Example 381],> 44,0.001 to 0.99,0.001 to 0.999,0.001 to 0.99,0.001 to 0.999,0.008,–,–,–,–
COC(=O)N[C@H](C(=O)N1CCC[C@H]1c1nc(Cl)c(-c2ccc3c(c2)OCc2c-3ccc(-c3[nH]c([C@@H]4CCCN4C(=O)[C@@H](NC(=O)OC)C(C)C)nc3Cl)c2F)[nH]1)C(C)C [Example 404],> 44,0.001 to 0.99,0.001 to 0.999,0.001 to 0.99,0.001 to 0.999,0.008,–,–,–,–
COC(=O)N[C@H](C(=O)N1[C@@H]2C[C@@H]2C[C@H]1c1ncc(-c2ccc(-c3ccc4c(ccc5nc([C@@H]6C[C@H]7C[C@H]7N6C(=O)[C@@H](NC(=O)OC)C(C)C)[nH]c54)c3)cc2F)[nH]1)C(C)C [Example 390],> 44,0.001 to 0.99,0.001 to 0.999,1 to 4.99,0.001 to 0.999,0.003,–,–,–,–
COC(=O)N[C@H](C(=O)N1CCC[C@H]1c1nc(Cl)c(-c2cc3c4c(c2)OCc2cc(-c5[nH]c([C@@H]6CCCN6C(=O)[C@H](NC(=O)OC)c6ccccc6)nc5Cl)cc(c2-4)OC3)[nH]1)C(C)C [Example 399],0.001 to 0.999,0.001 to 0.99,0.001 to 0.999,0.001 to 0.99,0.001 to 0.999,0.017,–,–,–,–
COC(=O)N[C@H](C(=O)N1[C@@H]2CC[C@@H](C2)[C@H]1c1ncc(-c2ccc(-c3ccc4c(ccc5nc([C@@H]6C[C@H]7C[C@H]7N6C(=O)[C@@H](NC(=O)OC)C(C)C)[nH]c54)c3)cc2)[nH]1)C(C)C [Example 98],> 44,0.001 to 0.99,–,–,–,–,0.001 to 0.999,1 to 4.99,0.001 to 0.999,0.01
COC(=O)N[C@H](C(=O)N1CCC[C@H]1c1ncc(-c2cc3c4c(c2)COc2cc(-c5cnc([C@@H]6CCCN6C(=O)[C@@H](NC(=O)OC)C(C)C)[nH]5)cc(c2-4)CC3)[nH]1)C(C)C [Example 370],> 44,0.001 to 0.99,0.001 to 0.999,0.001 to 0.99,0.001 to 0.999,0.028,–,–,–,–
COC(=O)N[C@H](C(=O)N1[C@@H]2CC[C@@H](C2)[C@H]1c1nc2ccc3cc(-c4ccc(-c5cnc([C@@H]6C[C@H]7C[C@H]7N6C(=O)[C@@H](NC(=O)OC)C6CCOCC6)[nH]5)c(F)c4)ccc3c2[nH]1)C(C)C [Example 392],> 44,0.001 to 0.99,0.001 to 0.999,1 to 4.99,0.001 to 0.999,0.022,–,–,–,–
COC(=O)N[C@H](C(=O)N1CCC[C@H]1c1nc2ccc3cc(-c4ccc(-c5[nH]c([C@@H]6[C@H]7CC[C@H](C7)N6C(=O)[C@H](NC(=O)OC)c6ccccc6)nc5Cl)cc4)ccc3c2[nH]1)C(C)C [Example 402],> 44,0.001 to 0.99,0.001 to 0.999,0.001 to 0.99,0.001 to 0.999,0.015,–,–,–,–
COC(=O)N[C@H](C(=O)N1CCC[C@H]1c1nc2ccc3cc(-c4ccc(-c5cnc([C@@H]6[C@H]7CC[C@H](C7)N6C(=O)[C@H](NC(=O)OC)c6ccccc6)[nH]5)cc4)ccc3c2[nH]1)C(C)C [Example 54],> 44,0.001 to 0.99,–,–,–,–,0.001 to 0.999,0.001 to 0.99,0.001 to 0.999,0.014
COC(=O)N[C@H](C(=O)N1CCC[C@H]1c1nc2ccc3cc(-c4ccc(-c5cnc([C@@H]6CC7(CN6C(=O)[C@H](C(C)C)C(C)C(=O)OC)OCCO7)[nH]5)cc4)ccc3c2[nH]1)[C@@H](C)OC (stereo partly drawn) [Example 80],> 44,0.001 to 0.99,–,–,–,–,0.001 to 0.999,0.001 to 0.99,0.001 to 0.999,0.072
COC(=O)N[C@H](C(=O)N1CCC[C@H]1c1nc2ccc3cc(-c4ccc(-c5cnc([C@@H]6[C@H]7CC[C@H](C7)N6C(=O)[C@@H](NC(=O)OC)C(C)C)[nH]5)cc4)ccc3c2[nH]1)C(C)C [Example 53],> 44,0.001 to 0.99,–,–,–,–,0.001 to 0.999,0.001 to 0.99,0.001 to 0.999,0.01
COC(=O)NC(C(=O)N1CCC[C@H]1c1ncc(-c2ccc(-c3ccc4c(ccc5nc([C@@H]6[C@H]7CC[C@H](C7)N6C(=O)[C@@H](NC(=O)OC)C(C)C)[nH]c54)c3)cc2)[nH]1)[C@@H](C)OC (stereo partly drawn) [Example 68],1 to 44,0.001 to 0.99,–,–,–,–,0.001 to 0.999,0.001 to 0.99,0.001 to 0.999,0.025
